Measurements published in patent US20120238488A1, “COMPOUNDS AND METHODS FOR TREATING NEOPLASIA” (priority 2009, published 2012).

Assays:
[1] = tested on: membrane androgen receptor; test: Membrane androgen receptor competition assay, DU145 cells; assay type: binding; details: 40 μM compound 30 minutes before 40 μM testosterone-HSA-FITC, FIGS. 3B, 3C
Text: To assess whether compounds of the invention were capable of binding directly to the membrane androgen receptor, a fluorescent-based assay was used to measure the ability of a given compound to preclude binding of a fluorescent mAR ligand (testosterone-HSA-FITC conjugates) to its receptor in LNCaP and DU145 cells (see Kampa, M et al, 2002, Faseb J 16:1429-1431, and PCT/U52007/007913).
The detection of membrane androgen receptors using fluorescent testosterone-serum albumin conjugates was performed as described by Kampa, M et al, 2002, Faseb J 16:1429-1431, with minor modifications. Briefly, LNCaP or DU145 prostate cancer cells were cultured on 0.1% gelatin-coated glass coverslips in RPMI 1640 medium supplemented with 2 mM L-Glutamine, 10% Fetal Bovine Serum and 1% Penicillin/Streptomycin for at least 48 hours until reaching 70% confluency. After a 24 hour serum starvation period, cells were incubated with 40 μM testosterone-HSA-FITC for 1 hour at room temperature. The cells were then washed three times with phosphate buffered saline (PBS) and fixed with 3.7% formaldehyde in PBS for 5 minutes at room temperature. Human serum albumin-FITC was used as a control for background staining. […] Coverslips were mounted on slides by using the Slow Fade/Antifade Reagent (Molecular Probes) and studied under a LEICA DMLB microscope, equipped with the appropriate fluorescence filters and a Leica DC 300F camera. Specimens were analyzed using the Leica FW4000 computer program.
To determine the capacity of a given compound to preclude binding of fluorescent testosterone-HSA conjugates (TAC) to the membrane androgen receptor, starved LNCaP or DU145 cells on coverslips prepared as described above were pre-treated with 40 μM of the indicated compound for 30 minutes prior to the addition of testosterone-HSA-FITC. […] Specimens were prepared and analyzed as described above. Compounds binding to the membrane androgen receptor preclude binding of fluorescent testosterone-HSA conjugates to their target and abolish membrane-specific fluorescence.

HCT116 (Colon) = test: SRB assay, HCT116; assay type: cell-based; details: Homo sapiens
Experimental: (§1) SRB assays were performed according to standard National Cancer Institute Guidelines. Briefly, human tumor cells from different cancer panels were seeded into 96 well plates in 100 μL (plating densities ranging from 5-40,000 cells/well depending on the doubling time of individual cell lines) in serum-containing media for twenty-four hours prior to the addition of the compounds to be assayed. After 24 hours, one plate of each cell line was fixed in situ with trichloroacetic acid (TCA). The fixed slides were used to determine the cell population for each cell line at the time of drug addition (Tz). Each compound to be tested was solubilized in DMSO and the desired concentration was then added to the medium and diluted serially 1:10 to provide a total of five or ten drug concentrations plus control (in a final volume of 200 μL). The starting dose before any dilution was 100 uM for all compounds.
(§2) Following drug addition, each culture was incubated for forty-eight hours. The assay was terminated with the addition of cold TCA. The supernatant was discarded, and the plates were washed with tap water and air dried. Sulforhodamine B (SRB) solution was then added to each well. After staining, the bound stain was solubilized and the absorbance was read on an automated plate reader at a wavelength of 515 nm.
(§3) Using the absorbance measurements [time zero, (Tz), control growth, (C), and test growth in the presence of drug at the ten concentration levels (Ti)], the percentage growth was calculated at each of the drug concentrations levels. Percentage growth inhibition was calculated as:
(§4) [(Ti−Tz)/(C−Tz)]×100 for concentrations for which Ti>/=Tz
(§5) [(Ti−Tz)/Tz]×100 for concentrations for which Ti<Tz.
(§6) Three dose response parameters were calculated for each experimental agent. Growth inhibition of 50% (GI50) was calculated from [(Ti−Tz)/(C−Tz)]×100=50, which was the drug concentration resulting in a 50% reduction in the net protein increase (as measured by SRB staining) in control cells during the drug. The drug concentration resulting in total growth inhibition (TGI) was calculated from Ti=Tz. The LC50 (concentration of drug resulting in a 50% reduction in the measured protein at the end of the drug treatment as compared to that at the beginning) indicating a net loss of cells following treatment was calculated from [(Ti−Tz)/Tz]×100=−50.
(§7) Values were calculated for each of these three parameters when the level of activity was reached; however, if the effect was not reached or was exceeded, the value for that parameter was expressed as greater or less than the maximum or minimum concentration tested.
(§8) Table 4 summarizes results characterizing the effects of compound Nos. 120, 12, 61, 1, and 56 on GI50, which measures the cell growth inhibitory power of the compound, TGI, which measures cytostatic effect (TGI) and LC50, which signifies cytotoxic effect. Each of these parameters in Table 4 was calculated in a sulforhodamine B (SRB) assay, which provides a colorimetric measure of a compound's anti-cancer activity. SRB assays were performed with compounds of the invention in 22 different cell lines (shaded in light gray in Table 4), which represent nine different tumor panels (lung, melanoma, ovary, prostate, CNS, breast, pancreas colon and renal). Ouabain and digoxin were used as controls. Paclitaxel was added as a non-Na^+K^+-ATPase inhibitor control.

SF268 (CNS) = test: SRB assay, SF268; assay type: cell-based; details: Homo sapiens
Experimental: as §1, §2, §3, §4, §5, §6, §7, §8

H160 (Lung) = test: SRB assay, H160; assay type: cell-based, human; details: 48 h
Experimental: as §1, §2, §3, §4, §5, §6, §7, §8

MCF7 (Breast) = test: SRB assay, MCF7; assay type: cell-based, human
Experimental: as §1, §2, §3, §4, §5, §6, §7, §8

PCJ (Prostate) = test: SRB assay, PCJ; assay type: cell-based; details: Homo sapiens, 48 h
Experimental: as §1, §2, §3, §4, §5, §6, §7, §8

[2] = tested on: 22 different cell lines, nine tumor panels (lung, melanoma, ovary, prostate, CNS, breast, pancreas colon and renal); test: SRB assay, all tumor cell line panels (summary statements); assay type: cell-based, human; details: lung, breast, CNS, colon, prostate, ovary, pancreas, kidney and melanoma lines, including a multidrug resistant cell line
Experimental: as §1, §2, §3
Three dose response parameters were calculated for each experimental agent. […] The drug concentration resulting in total growth inhibition (TGI) was calculated from Ti=Tz. The LC50 (concentration of drug resulting in a 50% reduction in the measured protein at the end of the drug treatment as compared to that at the beginning) indicating a net loss of cells following treatment was calculated from [(Ti−Tz)/Tz]×100=−50.
Each of these parameters in Table 4 was calculated in a sulforhodamine B (SRB) assay, which provides a colorimetric measure of a compound's anti-cancer activity. SRB assays were performed with compounds of the invention in 22 different cell lines (shaded in light gray in Table 4), which represent nine different tumor panels (lung, melanoma, ovary, prostate, CNS, breast, pancreas colon and renal). […] Paclitaxel was added as a non-Na^+K^+-ATPase inhibitor control.

Q: How did the “membrane fluorescence of TAC-FITC after pre-treatment (binding to mAR precluded)” value [1] turn out when `C[C@]12CC[C@H](O)C[C@H]1CC[C@@H]1[C@@H]2CC[C@]2(C)[C@@](O)(c3ccoc3)CC[C@]12O` [rostafuroxin, reference compound] was run?
A: failed to block binding of TAC-FITC to mAR

Q: What does the source list for `C[C@@H]1O[C@@H](O[C@H]2C[C@@H](O)[C@]3(CO)[C@H]4[C@H](O)C[C@]5(C)[C@@H](C6=CC(=O)OC6)CC[C@]5(O)[C@@H]4CC[C@]3(O)C2)[C@H](O)[C@H](O)[C@H]1O` [Ouabain, reference compound]?
A: CC50 (HCT116 (Colon); HCT-116, 48 h, read-out: LC50): > 50000 nM; GI50 (HCT116 (Colon); HCT-116, HCT116, SRB, 48 h): < 80 nM; IC (TGI) (HCT116 (Colon); HCT-116, HCT116, SRB, 48 h): 4500 nM; CC50 (SF268 (CNS); SF-268, 48 h, read-out: LC50): 300 nM; GI50 (SF268 (CNS); SF-268, SF268, SRB, 48 h, read-out: GI50): < 80 nM; IC (TGI) (SF268 (CNS); SF-268, SF268, SRB, 48 h, read-out: TGI): 100 nM; TGI (H160 (Lung); H160, SRB): 100 nM; CC50 (H160 (Lung); Homo sapiens, read-out: LC50): 300 nM; GI50 (H160 (Lung); Homo sapiens, H160, SRB): < 80 nM; CC50 (MCF7 (Breast); Homo sapiens, MCF7, 48 h, read-out: LC50): 300 nM; GI50 (MCF7 (Breast); Homo sapiens, MCF7, SRB, 48 h): < 80 nM; TGI (MCF7 (Breast); MCF7, SRB, 48 h): 200 nM; CC50 (PCJ (Prostate); read-out: LC50): 300 nM; GI50 (PCJ (Prostate); PCJ, SRB): < 80 nM; IC (TGI) (PCJ (Prostate); PCJ, SRB): 100 nM

Q: For `C[C@]12CCC(=NOCCn3cc(CN)nn3)CC1CCC1C2CC[C@]2(C)C(=O)CCC12` (stereo partly drawn) [Compound 31, (10S,13S)-3-(2-(4-(aminomethyl)-1H-1,2,3-triazol-1-yl)ethoxyimino)-10,13-dimethyltetradecahydro-1H-cyclopenta[a]phenanthren-17(2H)-one], which “viability and/or cell proliferation of neoplastic cell lines” value [2] is on record?
A: reduced the viability and/or cell proliferation
